Patent US6537783B1, “Prefunctionalized nucleotide and process for amplifying a sequence using a prefunctionalized nucleotide” (Bio Merieux, priority 1996, dated 2003)

Assays:
[1] = system: Mycobacterium tuberculosis 16S RNA; test: Impact of incorporation of prefunctionalized nucleotides on TMA sensitivity (ELOSA, electrophoresis, Northern blotting); format: biochemical; details: for sensitivity of the TMA reaction: 10,000 to 10 target copies, ratios 100% to 0%, at a determinable concentration of prefunctionalized nucleotide
Text: In the abovementioned FIGS. 4 and 5, the number of copies of the target per reaction are given on the x axis and the number of amplicons obtained per microliter of reaction (final reaction volume=100 microliters) are given on the y axis. Specific symbols, for example ▪, □, ▴, ◯, ●, and a percentage, are assigned to the curves in FIGS. 4 and 5. This percentage corresponds to the percentage of the prefunctionalized nucleotide(s) as compared with the natural nucleotides in the TMA amplification reaction. FIGS. 4 and 5 show, respectively, the results of the semiquantification, by means of the ELOSA technique (described in Patent Application PCT WO 92/19812), of the number of amplicons produced from a target range of Mycobacterium tuberculosis 16S RNA in the presence of different ratios of 27a and 27b nucleotides as compared with their respective natural nucleotides.
In order to study the sensitivity of TMA which includes incorporation of prefunctionalized nucleotides, the TMA was performed using decreasing quantities of the target (Mycobacterium tuberculosis 16S RNA, described in Example 22) (10,000, 1000, 100, 10 and 0 copies) in the presence of different ratios between the prefunctionalized nucleotide and its natural analog (100%, 70%, 50%, 30%, 10% and 0%). The same prefunctionalized nucleotides are tested, i.e. 27a (CTP-(N4)-C6O2—NH2) and 27b (CTP-(N4)-C4—NH2).
The reaction products are studied, inter alia, by the method described in Example 22.
The reaction products are also analyzed in a semi-quantitative manner by means of ELOSA (PCT WO 92/19812) and comparison of the intensity of the signals with those of standard ranges.
The reactions which are performed in the presence of (a) prefunctionalized nucleotide(s) are analyzed by electrophoresis and staining, Northern blotting and ELOSA.

[2] = system: Mycobacterium tuberculosis 16S RNA; test: Incorporation yield of the nucleotide in the TMA amplification products (HPLC of digested amplicons; fluorescence for fluorescein-UTP); format: biochemical; details: 10^6 copies target, total 4 mM
Protocol: The incorporation of the prefunctionalized nucleotides 27a, 27b and 32, and, by way of comparison, Boerhinger's labeled nucleotide ref. 1 427 857, into the products of the TMA amplification reaction is tested using Gen-Probe amplified™ MTD2 (amplified Mycobacterium tuberculosis direct test) kits. This reaction amplifies a 136-base fragment of the mycobacterial 16S RNA. It uses four enzymic activities (DNA-dependent RNA polymerase, DNA-dependent DNA polymerase, RNA-dependent DNA polymerase and ribonuclease H) and two enzymes, T7 RNA polymerase and AMV reverse transcriptase. By means of recurrent reactions involving steps of transcription, reverse transcription and digestion of the RNA contained in the DNA:RNA double strands, which steps resemble an RNA virus replication cycle, this reaction enables a nucleic acid sequence which is recognized by two primers (a simple primer and a primer containing the T7 RNA polymerase promoter) to be amplified specifically. The amplification factor is very substantial ([…]) and the sensitivity is very good (from 1 to 10 copies). 90% of the resulting products consist of single-stranded RNAs and 10% consist of double-stranded DNAs.
Amplification reactions are carried out using 10^6 copies of Mycobacterium tuberculosis 16S RNA. This target RNA is previously obtained and quantified by means of the following method: the 16S RNA gene is cloned into a plasmid under the control of a promoter. The 16S RNA is then obtained by in vitro transcription. This RNA is purified by extraction with phenol/chloroform and filtration through microcon 30™ (Amicon). It is assayed by its absorption at 260 nm.
The standard TMA reactions contain 4 mM of each of the natural rNTPs (ATP, CTP, GTP and UTP). For the purpose of incorporating the prefunctionalized nucleotides into the amplification products, the reaction is performed while including one of these modified nucleotides in the reaction buffer. The reaction is studied in the presence of different ratios between the concentrations of the modified nucleotide and the natural nucleotide, while at the same time ensuring that the total concentration of each nucleotide of the same series, whether modified or natural, is 4 mM. The ratios studied are 0%, 10%, 30%, 50% and 70% (except in the case of the fluorescein-UTP, which it was not possible to test at 70%). A negative control is carried out, with this negative control consisting of a reaction which comprises all the reagents, including the highest ratio of modified nucleotides employed (70 or 50%), apart from the enzymes (which are replaced by the buffer used for redissolving the lyophilized enzymes).
The ratio between the incorporated prefunctionalized nucleotide and the analogous natural nucleotide is determined in order to assess the prefunctionalization of the amplicons obtained in the presence of the prefunctionalized nucleotides 27a (CTP-(N4)-C6O2—NH2) and 27b (CTP-(N4)-C4—NH2) and, by way of comparison, in the presence of the labeled nucleotide fluorescein-12-UTP (Boerhinger, ref. 1 427 857).
The amplification products obtained on carrying out Example 22 are separated from the nucleotides which are in excess in the reaction by means of filtration through Microcon 30™ (from Amicon) and dissolved in 50 μl of water. In the case of the amplification in the presence of fluorescein-12-UTP, the purification is carried out on sephadex G50 (the fluorescein is absorbed on Microcon).
The absorption of the amplification products at 260 nm is then determined (the control without enzyme should have a very low concentration).
In the case of the amplification reactions which include the prefunctionalized nucleotides (and their controls), a step of digesting the nucleic acids down to the nucleoside stage is then carried out:
5 10^14 amplification product copies (approximately 35 μg) are diluted in a final volume of 86 μl of water (in the case of the control without enzyme, a volume is used which is equal to the largest sample […] volume). […]

[3] = [Prefunctionalized nucl.]/[natural nucl.] in reaction 10%
[4] = [Prefunctionalized nucl.]/[natural nucl.] in reaction 30%
[5] = [Prefunctionalized nucl.]/[natural nucl.] in reaction 50%
[6] = [Prefunctionalized nucl.]/[natural nucl.] in reaction 70%

Row | Substance | sensitivity of the TMA reaction [1] | incorporation yield: incorporated modified nucleotide / natural nucleotide in TMA amplification products [2, 3] | incorporation yield: incorporated modified nucleotide / natural nucleotide in TMA amplification products [2, 4] | incorporation yield: incorporated modified nucleotide / natural nucleotide in TMA amplification products [2, 5] | incorporation yield: incorporated modified nucleotide / natural nucleotide in TMA amplification products [2, 6] | ability to replace the natural nucleotide in TMA ([1]; FIG. 5, ELOSA)
1 | CTP-(N4)-C6O2—NH2 [nucleotide 27a] | not significantly affected | 1/33 | 1/9 | 1/5 | 1/3 | 
2 | CTP-(N4)-C4—NH2 [nucleotide 27b] | not significantly affected |  | 1/48 | 1/15 | 1/6 | able to replace the natural nucleotide
3 | fluorescein-12-UTP [reference compound] |  | 1/200 | 1/45 | 1/30 |  | 
